In patent US4551472A, “Unsymmetrical bis-carbamate compounds” (priority 1984, dated 1985):

How the values were obtained:
[1] = tested on: root-knot nematode, Meloidogyne incognita var. acrita; test: Nematocide Test; also: key: 1: severe galling, equal to untreated plants; 2: moderate galling; 3: light galling; 4: very light galling; 5: no galling, perfect control; type: in vivo; conditions: 3.33 m.g. per jar; cucumber, approximately 3 weeks
Experimental: The test organism used was the infective migratory larvae of the root-knot nematode, Meloidogyne incognita var. acrita, reared in the greenhouse on roots of cucumber plants. Infected plants were removed from the culture, and the roots are chopped very finely. A small amount of this inoculum was added to a pint jar containing approximately 180 cc. of soil. The jars were capped and incubated for one week at room temperature. During this period eggs of the nematode were hatched, and the larval forms migrated into the soil.
Ten ml. of the test formulation were added to each of the two jars for each dosage tested. Following the addition of chemical, the jars were capped, and the contents thoroughly mixed on a ball mill for 5 minutes.
The test compounds were formulated by a standard procedure of solution in acetone addition of an emulsifier, and dilution with water. Primary screening tests were conducted at 3.33 m.g. of the test compound per jar.
The jars were left capped at room temperature for a period of 48 hours, and the contents then transferred to 3 inch pots. Subsequently, the pots were seeded to cucumber as an indicator crop and placed in the greenhouse where they were cared for in the normal fashion for approximately 3 weeks.
The cucumber plants were then taken from the pots, the soil removed from the roots; and the amount of galling visually rated.
In the test for activity against nematodes (nem) activity was rated as follows: […]

[2] = Mammalian Toxicity, peroral toxicity to rat; type: in vivo; conditions: in vivo, po, read-out: A.O. Rat LD50
Experimental: Certain compounds were also evaluated to determine their peroral toxicity to mammals by conventional methods. The representative animal selected for this experiment was the rat.

Soy = test: Phytotoxicity Test, soy; conditions: 2500 ppm spray, ten days
Experimental: (§1) Experiments were also conducted to determine the phytotoxicity of representative compounds with respect to healthy fresh plants. […] The test plants were sprayed in accordance with the procedure described above for the Mite Foliage Spray Test so as to deliver approximately 100 milliliters of test solution to the leaves of each plant tested. The sprayed plants and controls were set aside for approximately one hour to allow the foliage to dry and were then placed in the greenhouse. After ten days the plants were visually inspected to determine the extent of foliage injury. A rating of 1 indicates no perceptible injury; 5 indicates the plant was dead and ratings of 2, 3 and 4 indicate intermediate degrees of injury based upon the number and extent to which leaves were injured.

Bean = test: Phytotoxicity Test, bean; conditions: 2500 ppm spray, ten days
Experimental: as §1

Corn = test: Phytotoxicity Test, corn; conditions: 2500 ppm spray, ten days
Experimental: as §1

Tom = test: Phytotoxicity Test, tomato; conditions: 2500 ppm spray, ten days
Cotton = test: Phytotoxicity Test, cotton; conditions: 2500 ppm spray, ten days
Experimental: as §1

Row | Structure (SMILES) | Biological Activity: Nem (nematode, galling rating) [1] | LD50 [2] [mg/kg] | Phytotoxicity: Soy (Soy) | Phytotoxicity: Bean (Bean) | Phytotoxicity: Corn (Corn) | Phytotoxicity: Tom (Tom) | Phytotoxicity: Cotton (Cotton)
1 | CSC(C)=NOC(=O)N(C)SN(C)C(=O)Oc1ccc(C(C)C)cc1 [VIII, N-[1-Methylthioacetaldehyde O-(N-methylcarbamoyl)oxime]N-[4-isopropylphenyl-(N-methylcarbamoyloxy)]sulfide] | 4 | 160 | 1 | 1 | 1 | 1 | 1
2 | CSC(C)=NOC(=O)N(C)SN(C)C(=O)Oc1cc(C)c(C)c(C)c1 [XVIII, N-[1-Methylthioacetaldehyde O-(N-methylcarbamoyl)oxime]N-[3,4,5-trimethylphenyl-(N-methylcarbamoyloxy)]sulfide] | 4 | 95.1 | 1 | 1 | 1 | 1 | 1
